Measured values taken from article PMC4166403 (Cell, 2014).

Tests used:
[1] = target: T1, pyruvate carboxylase (LmPC) (Listeria monocytogenes, UniProt Q8Y846); experiment: PC activity assay with nucleotide analogues; format: biochemical
T1 sequence (Q8Y846 1-1146): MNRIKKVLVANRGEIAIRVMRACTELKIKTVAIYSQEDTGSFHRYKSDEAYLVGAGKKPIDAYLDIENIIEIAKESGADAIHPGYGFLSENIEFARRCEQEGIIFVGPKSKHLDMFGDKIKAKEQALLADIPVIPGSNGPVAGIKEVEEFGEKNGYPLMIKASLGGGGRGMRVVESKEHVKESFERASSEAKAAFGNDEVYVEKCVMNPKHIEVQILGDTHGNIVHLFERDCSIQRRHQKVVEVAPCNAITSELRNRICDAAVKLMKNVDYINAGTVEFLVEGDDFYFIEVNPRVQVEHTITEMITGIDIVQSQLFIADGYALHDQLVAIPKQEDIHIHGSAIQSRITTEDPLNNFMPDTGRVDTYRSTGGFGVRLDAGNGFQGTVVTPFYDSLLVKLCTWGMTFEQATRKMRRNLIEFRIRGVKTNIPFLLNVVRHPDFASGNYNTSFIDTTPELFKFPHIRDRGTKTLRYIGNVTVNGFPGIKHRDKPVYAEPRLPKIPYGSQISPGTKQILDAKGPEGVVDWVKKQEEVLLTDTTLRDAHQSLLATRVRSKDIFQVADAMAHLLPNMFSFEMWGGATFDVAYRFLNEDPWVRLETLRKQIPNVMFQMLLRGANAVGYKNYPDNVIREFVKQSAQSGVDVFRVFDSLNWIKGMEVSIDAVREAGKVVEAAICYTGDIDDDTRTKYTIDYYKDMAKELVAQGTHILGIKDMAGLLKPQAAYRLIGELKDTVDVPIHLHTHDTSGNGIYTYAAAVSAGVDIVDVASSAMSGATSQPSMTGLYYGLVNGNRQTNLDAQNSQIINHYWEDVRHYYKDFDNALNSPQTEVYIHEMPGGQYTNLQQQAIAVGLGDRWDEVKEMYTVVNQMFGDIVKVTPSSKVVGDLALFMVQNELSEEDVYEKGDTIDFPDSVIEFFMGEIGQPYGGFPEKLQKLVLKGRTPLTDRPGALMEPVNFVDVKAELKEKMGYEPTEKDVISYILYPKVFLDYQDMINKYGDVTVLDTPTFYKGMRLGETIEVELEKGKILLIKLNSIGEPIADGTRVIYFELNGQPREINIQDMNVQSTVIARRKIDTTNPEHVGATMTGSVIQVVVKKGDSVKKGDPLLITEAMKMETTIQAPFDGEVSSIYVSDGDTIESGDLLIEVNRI

[2] = target: pyruvate carboxylase (LmPC) (Listeria monocytogenes, UniProt Q8Y846, Y722F); experiment: binding titration and enzyme inhibition of purified mutant
[3] = target: T1, pyruvate carboxylase (LmPC); experiment: crystal structure; format: binding
[4] = target: T2, Lmo1466 (Listeria monocytogenes, UniProt Q8Y746); experiment: DRaCALA with […]-c-di-AMP in E. coli lysate expressing the protein; format: cell-based
T2 sequence (Q8Y746 1-718): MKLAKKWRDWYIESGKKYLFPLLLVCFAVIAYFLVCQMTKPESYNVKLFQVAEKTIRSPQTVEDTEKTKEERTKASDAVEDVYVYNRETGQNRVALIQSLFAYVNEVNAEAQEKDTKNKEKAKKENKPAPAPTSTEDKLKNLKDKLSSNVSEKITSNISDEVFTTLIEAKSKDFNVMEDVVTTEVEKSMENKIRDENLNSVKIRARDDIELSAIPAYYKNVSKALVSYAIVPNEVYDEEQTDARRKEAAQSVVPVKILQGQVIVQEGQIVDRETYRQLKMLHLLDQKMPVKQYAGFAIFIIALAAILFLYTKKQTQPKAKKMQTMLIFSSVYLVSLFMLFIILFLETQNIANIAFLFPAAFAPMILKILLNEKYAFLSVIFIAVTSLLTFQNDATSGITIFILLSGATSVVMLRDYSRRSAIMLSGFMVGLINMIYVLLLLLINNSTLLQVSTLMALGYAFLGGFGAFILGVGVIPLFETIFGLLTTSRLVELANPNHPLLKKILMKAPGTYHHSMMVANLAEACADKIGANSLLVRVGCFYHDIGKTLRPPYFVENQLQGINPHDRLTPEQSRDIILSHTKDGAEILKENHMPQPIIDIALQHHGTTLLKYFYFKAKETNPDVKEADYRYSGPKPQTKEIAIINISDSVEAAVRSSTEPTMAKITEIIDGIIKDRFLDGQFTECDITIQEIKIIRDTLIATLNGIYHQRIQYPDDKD

[5] = target: T3, PdeA (Lmo0052) (Listeria monocytogenes, UniProt A0A0H3GCG4); experiment: DRaCALA with […]-c-di-AMP, purified recombinant protein; format: binding
T3 sequence (A0A0H3GCG4 1-657): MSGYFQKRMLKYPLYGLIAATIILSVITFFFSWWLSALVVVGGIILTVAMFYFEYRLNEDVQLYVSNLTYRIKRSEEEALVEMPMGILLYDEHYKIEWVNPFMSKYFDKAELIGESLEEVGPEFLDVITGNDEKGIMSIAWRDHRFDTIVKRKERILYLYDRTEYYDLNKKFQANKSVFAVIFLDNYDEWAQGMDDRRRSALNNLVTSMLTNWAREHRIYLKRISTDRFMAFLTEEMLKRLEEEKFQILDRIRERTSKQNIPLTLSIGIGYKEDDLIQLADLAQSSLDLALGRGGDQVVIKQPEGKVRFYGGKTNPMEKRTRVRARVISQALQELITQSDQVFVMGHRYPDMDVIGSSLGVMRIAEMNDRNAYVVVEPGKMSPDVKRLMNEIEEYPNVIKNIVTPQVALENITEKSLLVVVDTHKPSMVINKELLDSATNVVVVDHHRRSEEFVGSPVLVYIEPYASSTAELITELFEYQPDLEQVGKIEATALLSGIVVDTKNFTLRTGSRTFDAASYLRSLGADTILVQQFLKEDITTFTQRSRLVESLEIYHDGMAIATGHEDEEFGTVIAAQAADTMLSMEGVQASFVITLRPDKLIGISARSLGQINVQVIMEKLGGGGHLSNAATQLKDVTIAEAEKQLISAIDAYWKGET

[6] = target: the molecule itself; experiment: crystal structure

O=c1[nH]cnc2c1ncn2[C@@H]1O[C@@H]2COP(=O)(O)O[C@H]3[C@@H](O)[C@H](n4cnc5c(=O)[nH]cnc54)O[C@@H]3COP(=O)(O)O[C@H]2[C@H]1O [c-di-IMP]
PC activity assay with nucleotide analogues [1]: while c-di-IMP did show weak inhibitory activity

Nc1ncnc2c1ncn2[C@@H]1O[C@@H]2CO[P@@](=O)(O)O[C@H]3[C@@H](O)[C@H](n4cnc5c(N)ncnc54)O[C@@H]3CO[P@@](=O)(O)O[C@H]2[C@H]1O [cdA, c-di-AMP]
binding titration and enzyme inhibition of purified mutant [2]: binding to c-di-AMP was only observed for Y722F and none of the other amino acid variants | Kd [3]: 8 ± 0.2 µM | DRaCALA with 32P-c-di-AMP in E. coli lysate expressing the protein [4]: A significant level of binding was observed for Lmo1466 and NrdR-expressing lysates, consistent with a direct interaction with c-di-AMP | DRaCALA with 32P-c-di-AMP, purified recombinant protein [5]: as well as PdeA and LmPC exhibited binding in purified form

B1: Listeria monocytogenes pyruvate carboxylase (LmPC) (enzyme)
chain: T1 sequence (Q8Y846 1-1146)
modifications: biotin group on the BCCP domain (position not given)
stoichiometry N [6]: 4
